# Experimental data as given in US7795290B2 (Genentech, Inc., priority 2004, dated 2010).
# Molecular target: T1, DYRK2 (Homo sapiens, UniProt Q92630)
# T1 sequence (Q92630 1-601): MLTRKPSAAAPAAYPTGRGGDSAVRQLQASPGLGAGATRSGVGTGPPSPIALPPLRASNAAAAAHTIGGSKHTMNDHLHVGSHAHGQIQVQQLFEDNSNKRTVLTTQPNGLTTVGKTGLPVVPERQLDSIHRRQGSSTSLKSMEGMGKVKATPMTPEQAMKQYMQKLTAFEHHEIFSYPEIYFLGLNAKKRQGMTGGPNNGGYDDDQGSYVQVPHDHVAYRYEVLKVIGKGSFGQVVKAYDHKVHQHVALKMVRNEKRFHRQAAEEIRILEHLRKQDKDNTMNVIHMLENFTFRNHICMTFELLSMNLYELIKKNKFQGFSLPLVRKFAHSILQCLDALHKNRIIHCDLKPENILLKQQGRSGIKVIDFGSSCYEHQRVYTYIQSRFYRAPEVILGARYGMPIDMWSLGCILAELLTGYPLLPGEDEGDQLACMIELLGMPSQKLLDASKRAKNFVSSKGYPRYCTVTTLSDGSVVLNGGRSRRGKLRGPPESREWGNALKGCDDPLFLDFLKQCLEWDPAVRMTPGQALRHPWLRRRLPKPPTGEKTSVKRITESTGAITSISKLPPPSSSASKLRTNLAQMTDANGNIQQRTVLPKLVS
# Assay: HTS ATP-utilizing enzyme assay, off-chip mobility-shift (Caliper HTS 250)
# Format: biochemical
# Details: kinase named = inhibitory activity/selectivity; test compound 10 μM; active = greater than three-sigma from mean
# Description: The following procedures describe the reagent and plate preparation for a HTS of an ATP-utilizing enzyme, such as a protein kinase, run in an off-chip mobility-shift assay format. The following provides an HTS protocol for running a protein kinase HTS screen on a Caliper HTS 250 microfluidics system. The following parameters are dependent on the protein kinase used and can be determined by one skilled in the art as part of a typical assay development process. For example, the peptide substrate used can be identified from the current literature, by screening a peptide library of potential protein kinase substrates, or by other applicable means accepted in the field.
# Assays to determine the kinase inhibitory activity of chemical entities of the present disclosure were performed using a Caliper HTS 250 microfluidics device, Greiner U-bottom assay plates, a Multidrop for transfer of reagents, and Biomek FX (AMNCBM03) software. Initially, 2.4 μL of a 1 mM solution of a test compound in 100% DMSO was added to a well of the Greiner U-bottom plate. A single Greiner U-bottom plate having 24×16 wells could include multiple test compounds. Next, 40 μL of 1.06× Assay Buffer was added to each well of the assay plate. Using the Biomek FX, 10 μL of 0.5 M EDTA was added by the span-8 to wells, indicated as 100% Control and 2.4 μL of 100% DMSO was added by the span-8 to wells, indicated as 0% Control. Using the Multidrop, 10 μL of 2.5× Enzyme Buffer, followed by 10 μL of 2.5× Substrate Buffer was added to each well of the assay plate. The total reaction volume in each well was 25 μL, and the concentration of the test compound was 10 μM. The assay plate was incubated for 2.5 hrs at 20° C. to 22° C. After the incubation period, using the Multidrop, 45 μL of 1.55× Termination Buffer was added to each well of the assay plate to stop the reaction. The inhibition of the ATP-utilizing enzyme, such as a particular protein kinase, was determined by measuring the ratio of the peptide substrate to phosphorylated product for each well of the assay plate using the Caliper HTS 250 system.
# The use of three-sigma statistical limits represents a conservative method for declaring potential hits among targets. The three-sigma activity, as well as the mean population activity, can be different for each target enzyme. This method has an expected false positive rate, from an in-control measurement process, of […].
# Each chemical entity listed in Table 2 was tested for protein kinase inhibitory activity according to the biological assays and definitions of protein kinase inhibitory activity as described herein. For each exemplary compound listed in Table 2, the inhibitory activity for at least one protein kinase according to the biological assays and definitions of protein kinase inhibitory activity as described herein is indicated.
row,Activity,Compound
1,DYRK2,COc1ccc(-c2csc(N(CCCN3CCOCC3)C(=O)Cc3cccc(Cl)c3)n2)cc1 [2-(3-chlorophenyl)-N-(4-(4-methoxyphenyl)thiazol-2-yl)-N-(3-morpholinopropyl)acetamide]
2,DYRK2,COCCN(C(=O)CCC(=O)O)c1nc(-c2ccc(OC)cc2)cs1 [4-((2-methoxyethyl)(4-(4-methoxyphenyl)thiazol-2-yl)amino)-4-oxobutanoic acid]
3,DYRK2,"COc1ccc(-c2csc(N(CCc3ccc(OC)c(OC)c3)C(=O)CCC(=O)O)n2)cc1 [4-((3,4-dimethoxyphenethyl)(4-(4-methoxyphenyl)thiazol-2-yl)amino)-4-oxobutanoic acid]"
4,DYRK2,COCCCN(C(=O)CCC(=O)O)c1nc(-c2ccc(OC)cc2)cs1 [4-((4-(4-methoxyphenyl)thiazol-2-yl)(3-methoxypropyl)amino)-4-oxobutanoic acid]
5,DYRK2,COc1ccc(-c2csc(N(CC3CCCO3)C(=O)CCC(=O)O)n2)cc1 (stereo not shown) [4-((4-(4-methoxyphenyl)thiazol-2-yl)((tetrahydrofuran-2-yl)methyl)amino)-4-oxobutanoic acid]
6,DYRK2,COc1ccc(-c2csc(N(C)C(=O)CCC(=O)O)n2)cc1 [4-((4-(4-methoxyphenyl)thiazol-2-yl)(methyl)amino)-4-oxobutanoic acid]
7,DYRK2,COc1ccc(-c2csc(N(CCc3ccccc3)C(=O)CCC(=O)O)n2)cc1 [4-((4-(4-methoxyphenyl)thiazol-2-yl)(phenethyl)amino)-4-oxobutanoic acid]

# Molecular target: T2, AKT1 (Homo sapiens, UniProt P31749)
# T2 construct: purchased Upstate 14-276
# T2 sequence (P31749 whole entry): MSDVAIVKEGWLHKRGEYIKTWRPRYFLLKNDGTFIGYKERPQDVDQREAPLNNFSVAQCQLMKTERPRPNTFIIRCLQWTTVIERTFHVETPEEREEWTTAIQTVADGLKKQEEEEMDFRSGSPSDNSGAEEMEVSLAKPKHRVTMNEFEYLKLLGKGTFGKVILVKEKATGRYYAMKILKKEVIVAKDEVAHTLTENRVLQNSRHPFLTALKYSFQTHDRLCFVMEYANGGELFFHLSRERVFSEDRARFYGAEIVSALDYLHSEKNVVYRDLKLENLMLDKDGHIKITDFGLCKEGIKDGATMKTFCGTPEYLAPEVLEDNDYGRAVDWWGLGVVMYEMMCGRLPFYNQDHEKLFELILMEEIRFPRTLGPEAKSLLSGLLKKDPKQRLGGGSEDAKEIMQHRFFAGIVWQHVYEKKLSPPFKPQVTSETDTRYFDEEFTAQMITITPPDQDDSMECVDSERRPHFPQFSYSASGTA
# Assay: as above
# Format: biochemical
# Details: kinase named = inhibitory activity/selectivity; test compound 10 μM; active = greater than three-sigma from mean
# Outline: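 AKT1 activity was measured by off-chip mobility shift (Caliper HTS 250) as the ratio of peptide substrate to phosphorylated product. Test compound was at 10 μM, with 2.5 h incubation at 20–22° C. EDTA wells served as 100% control and DMSO wells as 0%. Hits were called at three-sigma limits.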
row,Activity,Compound
1,AKT1,CCOC(=O)CC1CCN(C(=O)CCCN(C(=O)c2cccs2)c2nc(-c3cc4ccccc4o3)cs2)CC1 [ethyl 2-(1-(4-(N-(4-(benzofuran-2-yl)thiazol-2-yl)thiophene-2-carboxamido)butanoyl)piperidin-4-yl)acetate]
2,AKT1,CCOC(=O)Cc1csc(NC(=O)c2csc(N(CCCN3CCOCC3)C(=O)c3cccs3)n2)n1 [ethyl 2-(2-(2-(N-(3-morpholinopropyl)thiophene-2-carboxamido)thiazole-4-carboxamido)thiazol-4-yl)acetate]
3,AKT1,CCOC(=O)CN1CCN(CCCN(C(=O)c2cccs2)c2nc(-c3cc4ccccc4o3)cs2)CC1 [ethyl 2-(4-(3-(N-(4-(benzofuran-2-yl)thiazol-2-yl)thiophene-2-carboxamido)propyl)piperazin-1-yl)acetate]
4,AKT1,CCOC(=O)c1csc(N(CCCN2CCOCC2)C(=O)c2cccs2)n1 [ethyl 2-(N-(3-morpholinopropyl)thiophene-2-carboxamido)thiazole-4-carboxylate]
5,AKT1,CCOC(=O)CC(C)(C)c1csc(N(CCCN2CCOCC2)C(=O)c2cccs2)n1 [ethyl 3-methyl-3-(2-(N-(3-morpholinopropyl)thiophene-2-carboxamido)thiazol-4-yl)butanoate]
6,AKT1,CCOC(=O)N1CCN(CCCN(C(=O)c2cccs2)c2nc(-c3cc4ccccc4o3)cs2)CC1 [ethyl 4-(3-(N-(4-(benzofuran-2-yl)thiazol-2-yl)thiophene-2-carboxamido)propyl)piperazine-1-carboxylate]
7,AKT1,CCOC(=O)c1cc(-c2csc(N(CCCN3CCOCC3)C(=O)c3cccs3)n2)on1 [ethyl 5-(2-(N-(3-morpholinopropyl)thiophene-2-carboxamido)thiazol-4-yl)isoxazole-3-carboxylate]
8,AKT1,COC(=O)C1CCCN1C(=O)CCN(C(=O)c1cccs1)c1nc(-c2cc3ccccc3o2)cs1 (stereo not shown) [methyl 1-(3-(N-(4-(benzofuran-2-yl)thiazol-2-yl)thiophene-2-carboxamido)propanoyl)pyrrolidine-2-carboxylate]
9,AKT1,COC(=O)C1CCCCN1CCCN(C(=O)c1cccs1)c1nc(-c2cc3ccccc3o2)cs1 (stereo not shown) [methyl 1-(3-(N-(4-(benzofuran-2-yl)thiazol-2-yl)thiophene-2-carboxamido)propyl)piperidine-2-carboxylate]
10,AKT1,COC(=O)C1CCCN1CCCN(C(=O)c1cccs1)c1nc(-c2cc3ccccc3o2)cs1 (stereo not shown) [methyl 1-(3-(N-(4-(benzofuran-2-yl)thiazol-2-yl)thiophene-2-carboxamido)propyl)pyrrolidine-2-carboxylate]
11,AKT1,COC(=O)C1CCN(C(=O)CCCN(C(=O)c2cccs2)c2nc(-c3cc4ccccc4o3)cs2)CC1 [methyl 1-(4-(N-(4-(benzofuran-2-yl)thiazol-2-yl)thiophene-2-carboxamido)butanoyl)piperidine-4-carboxylate]
12,AKT1,COC(=O)C1CCCN1C(=O)CCCN(C(=O)c1cccs1)c1nc(-c2cc3ccccc3o2)cs1 (stereo not shown) [methyl 1-(4-(N-(4-(benzofuran-2-yl)thiazol-2-yl)thiophene-2-carboxamido)butanoyl)pyrrolidine-2-carboxylate]
13,AKT1,COC(=O)CNC(=O)CCN(C(=O)c1cccs1)c1nc(-c2cc3ccccc3o2)cs1 [methyl 2-(3-(N-(4-(benzofuran-2-yl)thiazol-2-yl)thiophene-2-carboxamido)propanamido)acetate]
14,AKT1,COC(=O)CNC(=O)CCCN(C(=O)c1cccs1)c1nc(-c2cc3ccccc3o2)cs1 [methyl 2-(4-(N-(4-(benzofuran-2-yl)thiazol-2-yl)thiophene-2-carboxamido)butanamido)acetate]
15,AKT1,COC(=O)c1ccc(-c2csc(N(CCCN3CCOCC3)C(=O)c3cccs3)n2)cc1 [methyl 4-(2-(N-(3-morpholinopropyl)thiophene-2-carboxamido)thiazol-4-yl)benzoate]
16,AKT1,COC(=O)c1ccc(-c2csc(N(CCCN3CCOCC3)C(=O)c3cccs3)n2)nc1 [methyl 6-(2-(N-(3-morpholinopropyl)thiophene-2-carboxamido)thiazol-4-yl)nicotinate]
17,AKT1,CC(C)(C)OC(=O)NC1CCN(CCCN(C(=O)c2cccs2)c2nc(-c3cc4ccccc4o3)cs2)C1 (stereo not shown) [tert-butyl 1-(3-(N-(4-(benzofuran-2-yl)thiazol-2-yl)thiophene-2-carboxamido)propyl)pyrrolidin-3-ylcarbamate]
18,AKT1,CC(C)(C)OC(=O)NC1CCN(C(=O)CCCN(C(=O)c2cccs2)c2nc(-c3cc4ccccc4o3)cs2)C1 (stereo not shown) [tert-butyl 1-(4-(N-(4-(benzofuran-2-yl)thiazol-2-yl)thiophene-2-carboxamido)butanoyl)pyrrolidin-3-ylcarbamate]
19,AKT1,CC(C)(C)OC(=O)NCCNC(=O)CCCN(C(=O)c1cccs1)c1nc(-c2cc3ccccc3o2)cs1 [tert-butyl 2-(4-(N-(4-(benzofuran-2-yl)thiazol-2-yl)thiophene-2-carboxamido)butanamido)ethylcarbamate]
20,AKT1,CC(C)(C)OC(=O)N1CCN(CCCN(C(=O)c2cccs2)c2nc(-c3cc4ccccc4o3)cs2)CC1 [tert-butyl 4-(3-(N-(4-(benzofuran-2-yl)thiazol-2-yl)thiophene-2-carboxamido)propyl)piperazine-1-carboxylate]
21,AKT1,CC(C)(C)OC(=O)N1CCN(C(=O)CCCN(C(=O)c2cccs2)c2nc(-c3cc4ccccc4o3)cs2)CC1 [tert-butyl 4-(4-(N-(4-(benzofuran-2-yl)thiazol-2-yl)thiophene-2-carboxamido)butanoyl)piperazine-1-carboxylate]
